Assay results published in the NIST ThermoML archive (doi:10.1016/j.fluid.2014.10.003).
Values joined by “and” are separate entries in the source; they are usually repeats but may differ in a detail not shown here. Identical values can stand only once. ± gives the expanded uncertainty stated by the source.

Conditions: Liquid, Vibrating tube method

Which mass density (293.15 K, 100 kPa) does the source give for `CCCCC(CC)COC(=O)c1ccc(C(=O)OCC(CC)CCCC)c(C(=O)OCC(CC)CCCC)c1` (configuration not stated) [tris(2-ethylhexyl) trimellitate] here?
The mass density was 988.2 ± 2 kg/m3.

What about the mass density (293.15 K, 2510 kPa) of the same molecule?
Its mass density is 989.6 ± 2 kg/m3.

What about the mass density (293.15 K, 5000 kPa) of the same molecule?
The mass density was 991 ± 2 kg/m3.

What about the mass density (293.15 K, 7510 kPa) of the same molecule?
The mass density was 992.4 ± 2 kg/m3.

And the mass density (293.15 K, 10010 kPa)?
Its mass density is 993.8 ± 2 kg/m3.

And the mass density (293.15 K, 15010 kPa)?
Its mass density is 996.6 ± 2 kg/m3.

What about the mass density (293.15 K, 19990 kPa) of the same molecule?
The mass density was 999.2 ± 2 kg/m3.

And the mass density (293.15 K, 30010 kPa)?
The mass density was 1004.3 ± 2 kg/m3.

What about the mass density (293.15 K, 40020 kPa) of the same molecule?
Its mass density is 1009.2 ± 2 kg/m3.

What about the mass density (293.15 K, 50030 kPa) of the same molecule?
The mass density was 1013.8 ± 2 kg/m3.

And the mass density (293.15 K, 68010 kPa)?
The mass density was 1021.5 ± 2.1 kg/m3.

What about the mass density (313.15 K, 100 kPa) of the same molecule?
Its mass density is 973.4 ± 2 kg/m3.

What about the mass density (313.15 K, 2500 kPa) of the same molecule?
The mass density was 974.9 ± 2 kg/m3.

And the mass density (313.15 K, 2510 kPa)?
The mass density was 974.9 ± 2 kg/m3.

And the mass density (313.15 K, 5020 kPa)?
Its mass density is 976.4 ± 2 kg/m3 and 976.5 ± 2 kg/m3.

And the mass density (313.15 K, 7490 kPa)?
Its mass density is 977.9 ± 2 kg/m3.

What about the mass density (313.15 K, 10010 kPa) of the same molecule?
The mass density was 979.4 ± 2 kg/m3 and 979.5 ± 2 kg/m3.

And the mass density (313.15 K, 15010 kPa)?
The mass density was 982.4 ± 2 kg/m3.

And the mass density (313.15 K, 20000 kPa)?
Its mass density is 985.3 ± 2 kg/m3.

And the mass density (313.15 K, 30030 kPa)?
The mass density was 990.8 ± 2 kg/m3.

What about the mass density (313.15 K, 40000 kPa) of the same molecule?
Its mass density is 996 ± 2 kg/m3.

What about the mass density (313.15 K, 40020 kPa) of the same molecule?
The mass density was 996 ± 2 kg/m3.

What about the mass density (313.15 K, 50000 kPa) of the same molecule?
The mass density was 1001 ± 2 kg/m3.

What about the mass density (313.15 K, 68000 kPa) of the same molecule?
Its mass density is 1009.3 ± 2 kg/m3.

What about the mass density (333.15 K, 100 kPa) of the same molecule?
Its mass density is 958.9 ± 1.9 kg/m3.

What about the mass density (333.15 K, 2500 kPa) of the same molecule?
Its mass density is 960.4 ± 1.9 kg/m3 and 960.5 ± 1.9 kg/m3.

What about the mass density (333.15 K, 5000 kPa) of the same molecule?
Its mass density is 962.1 ± 1.9 kg/m3.

And the mass density (333.15 K, 7510 kPa)?
The mass density was 963.8 ± 1.9 kg/m3.

And the mass density (333.15 K, 10010 kPa)?
The mass density was 965.4 ± 1.9 kg/m3.

And the mass density (333.15 K, 15010 kPa)?
The mass density was 968.6 ± 1.9 kg/m3.

What about the mass density (333.15 K, 20000 kPa) of the same molecule?
Its mass density is 971.6 ± 2 kg/m3.

And the mass density (333.15 K, 30010 kPa)?
Its mass density is 977.6 ± 2 kg/m3.

And the mass density (333.15 K, 39990 kPa)?
The mass density was 983.1 ± 2 kg/m3.

What about the mass density (333.15 K, 50000 kPa) of the same molecule?
The mass density was 988.4 ± 2 kg/m3.

What about the mass density (333.15 K, 67990 kPa) of the same molecule?
Its mass density is 997.2 ± 2 kg/m3.

And the mass density (353.15 K, 100 kPa)?
The mass density was 944.5 ± 1.9 kg/m3.

What about the mass density (353.15 K, 2490 kPa) of the same molecule?
The mass density was 946.2 ± 1.9 kg/m3.

What about the mass density (353.15 K, 5020 kPa) of the same molecule?
Its mass density is 948.1 ± 1.9 kg/m3.

And the mass density (353.15 K, 7510 kPa)?
Its mass density is 949.8 ± 1.9 kg/m3.

What about the mass density (353.15 K, 10020 kPa) of the same molecule?
The mass density was 951.6 ± 1.9 kg/m3.

And the mass density (353.15 K, 14990 kPa)?
The mass density was 955 ± 1.9 kg/m3.

And the mass density (353.15 K, 20010 kPa)?
The mass density was 958.3 ± 1.9 kg/m3.

What about the mass density (353.15 K, 30000 kPa) of the same molecule?
Its mass density is 964.7 ± 1.9 kg/m3.

And the mass density (353.15 K, 40020 kPa)?
The mass density was 970.6 ± 2 kg/m3.

And the mass density (353.15 K, 49990 kPa)?
Its mass density is 976.2 ± 2 kg/m3.

What about the mass density (353.15 K, 68000 kPa) of the same molecule?
The mass density was 985.5 ± 2 kg/m3.

What about the mass density (373.15 K, 100 kPa) of the same molecule?
The mass density was 930.1 ± 1.9 kg/m3.

And the mass density (373.15 K, 2510 kPa)?
Its mass density is 932 ± 1.9 kg/m3.

What about the mass density (373.15 K, 5020 kPa) of the same molecule?
The mass density was 934 ± 1.9 kg/m3.

What about the mass density (373.15 K, 7500 kPa) of the same molecule?
Its mass density is 935.9 ± 1.9 kg/m3.

And the mass density (373.15 K, 10040 kPa)?
The mass density was 937.9 ± 1.9 kg/m3.

And the mass density (373.15 K, 15000 kPa)?
The mass density was 941.6 ± 1.9 kg/m3.

What about the mass density (373.15 K, 20030 kPa) of the same molecule?
Its mass density is 945.2 ± 1.9 kg/m3.

What about the mass density (373.15 K, 30010 kPa) of the same molecule?
Its mass density is 952 ± 1.9 kg/m3.

And the mass density (373.15 K, 40020 kPa)?
The mass density was 958.3 ± 1.9 kg/m3.

What about the mass density (373.15 K, 49990 kPa) of the same molecule?
The mass density was 964.3 ± 1.9 kg/m3.

What about the mass density (373.15 K, 68010 kPa) of the same molecule?
The mass density was 974.2 ± 2 kg/m3.
